Experimental findings from patent US10245249B2, “Pharmaceutical compositions comprising nitroxyl donors” (Cardioxyl Pharmaceuticals, Inc., priority 2013, dated 2019) are described below.

This experiment can be described thus: HNO production determined via N2O quantification (GC headspace analysis). The class given is physicochemical. The settings on record: PBS, 37° C., 90 minutes incubation. The text has this:
Nitrous oxide (N2O) is produced via the dimerization and dehydration of HNO, and is the most common marker for nitroxyl production (Fukuto et al., Chem. Res. Toxicol. 18:790-801 (2005)). […] Using either nitrous oxide gas or Angeli's salt (AS) as a standard, the relative amounts of N2O released from compounds of the disclosure was examined via gas chromatography (GC) headspace analysis.
A procedure for determining the relative amounts of N2O released from compounds of the disclosure is as follows. GC was performed on an Agilent gas chromatograph equipped with a split injector (10:1 splitting), microelectron capture detector, and a HP-MOLSIV 30 m×0.32 mm×25 μm molecular sieve capillary column. Helium was used as the carrier (4 mL/min) gas and nitrogen was used as the make-up (20 mL/min) gas. The injector oven and the detector oven were kept at 200° C. and 325° C., respectively. All nitrous oxide analyses were performed with the column oven held at a constant temperature of 200° C.
All gas injections were made using an automated headspace analyzer. Vial pressurization was 15 psi. The analyzer's sample oven, sampling valve, and transfer line were kept at 40° C., 45° C., and 50° C., respectively. The oven stabilization, vial pressurization, loop fill, loop equilibration, and sample injection times were 1.00 min., 0.20 min., 0.20 min., 0.05 min., and 1.00 min., respectively.
All determinations used a batch of nominal 20 mL headspace vials with volumes pre-measured for sample uniformity (actual vial volume varied by <2.0% relative standard deviation (n=6)). The average vial volume for the batch was determined from six randomly-selected vials by calculating the weight difference between the capped and sealed empty (i.e., air-filled) vial and the capped and sealed deionized water-filled vial using the known density of deionized water, then averaging. Blanks were prepared by sealing and capping two vials then purging each for 20 seconds with a gentle argon stream. Nitroxyl standards were prepared by sealing and capping four vials then purging each for 1 minute with a gentle stream, from a gas cylinder, of a 3000 ppm […].
CXL-1020 (N-hydroxy-2-methanesulfonylbenzene-1-sulfonamide) “standards” were prepared by, in duplicate, accurately weighing 10±0.5 mg of CXL-1020 and adding it to each 4 mL vial. Using an auto pipette, 1 mL of argon-purged anhydrous DMF (Sigma-Aldrich) was added to each 4 mL vial to form a CXL-1020 stock solution for each sample and the vials were capped and shaken and/or sonicated to insure complete dissolution upon visual observation. Using an auto pipette, 20 mL vials were charged with 5 mL of PBS (purged for at least 30 min. with argon prior to use), purged with argon for at least 20 sec., and sealed with a rubber septum. Using a 50 μL syringe, 50 μL of the CXL-1020 stock solution was injected into each 20 mL vial containing the PBS.
Samples were prepared as follows. In duplicate, 18±1 mg of each sample was accurately weighed into each 4 mL vial. Using an auto pipette, 1 mL of argon-purged anhydrous DMF was added to each 4 mL vial to form a sample stock solution for each sample and the vials were capped and shaken and/or sonicated to insure complete sample dissolution upon visual observation. Using an auto pipette, 20 mL vials were charged with 5 mL of PBS (purged for at least 30 min. with argon prior to use), purged with argon for at least 20 sec., and sealed with a rubber septum. The vials were equilibrated for at least 10 min. at 37° C. in a dry block heater. Thereafter, using a 50 μL syringe, 50 μL of a sample stock solution was injected into each 20 mL vial containing the PBS. The vials were then held at 37° C. in the dry block heater for a time period such that the sum of the time spent in the dry block heater plus the time spent in the automated headspace analyzer oven before sample injection equaled the desired incubation time. […]

Turning to `COC(=O)c1ccc(Cl)c(S(=O)(=O)NO)c1` [Compound 55, Methyl 4-chloro-3-(hydroxysulfamoyl)benzoate], the “Relative N2O Yield (90 minutes incubation)” value (“Relative N2O Yield” for short) was found to be 87%. With `O=C(c1ccc(Cl)c(S(=O)(=O)NO)c1)N1CCC(=NO)CC1` [Compound 58, 2-Chloro-N-hydroxy-5-[4-(hydroxyimino)piperidine-1-carbonyl]benzene-1-sulfonamide] the figure was 92%; with `CN(C)C(=O)c1cc(S(=O)(=O)NO)c(Cl)cc1O` [Compound 64, 4-Chloro-2-hydroxy-5-(hydroxysulfamoyl)-N,N-dimethylbenzamide], 36%. As to `CC(=O)N1CCOc2ccc(S(=O)(=O)NO)cc21` [Compound 74, 4-Acetyl-N-hydroxy-3,4-dihydro-2H-1,4-benzoxazine-6-sulfonamide], the “Relative N2O Yield” value is 17%.

Turning to `COC(=O)c1cc(C)c(S(=O)(=O)NO)s1` [Compound 42, Methyl 5-(hydroxysulfamoyl)-4-methylthiophene-2-carboxylate], the “Relative N2O Yield” value turned out to be 91%. Consider `O=S(=O)(NO)c1ncccc1Br` [Compound 33, 3-Bromo-N-hydroxypyridine-2-sulfonamide], for which the “Relative N2O Yield” value was 85.5%. With `O=S(=O)(NO)c1ccc(S(=O)(=O)c2ccccc2)s1` [Compound 43, 5-(Benzenesulfonyl)-N-hydroxythiophene-2-sulfonamide] the figure was 82%; with `O=S(=O)(NO)c1ccc(-c2ccno2)s1` [Compound 38, N-Hydroxy-5-(1,2-oxazol-5-yl)thiophene-2-sulfonamide], 25%. Take `O=S(=O)(NO)c1ccc(-c2cnco2)s1` [Compound 40, N-Hydroxy-5-(1,3-oxazol-5-yl)thiophene-2-sulfonamide]: the “Relative N2O Yield” value is 50%. With `O=S(=O)(NO)c1ccc(Br)s1` [Compound 45, 5-Bromo-N-hydroxythiophene-2-sulfonamide] the figure was 76%; with `COCCN(C)C(=O)c1ccc(Cl)c(S(=O)(=O)NO)c1` [Compound 59, 4-Chloro-3-(hydroxysulfamoyl)-N-(2-methoxyethyl)-N-methylbenzamide], 82%; with `COC(=O)c1ccc(S(=O)(=O)NO)n1C` [Compound 75, Methyl 5-(hydroxysulfamoyl)-1-methyl-1H-pyrrole-2-carboxylate], 4%. With `O=S(=O)(NO)C1=C(Cl)NC2SC=CN12` (centres unmarked) [Compound 37, 6-Chloro-N-hydroxy-7H,7aH-imidazo[2,1-b][1,3]thiazole-5-sulfonamide] the figure was 51%.

On to `CCS(=O)(=O)c1ccccc1S(=O)(=O)NO` [Compound 72, 2-(Ethanesulfonyl)-N-hydroxybenzene-1-sulfonamide], for which the “Relative N2O Yield” value came to 97%. With `CN1CCc2cc(Br)c(S(=O)(=O)NO)cc21` [Compound 67, 5-Bromo-N-hydroxy-1-methyl-2,3-dihydro-1H-indole-6-sulfonamide] the figure was 59%; with `CC(=O)Nc1ncc(S(=O)(=O)NO)s1` [Compound 76, N-[5-(Hydroxysulfamoyl)-1,3-thiazol-2-yl]acetamide], 76%; with `O=S(=O)(NO)c1cc(C(F)(F)F)cc(C(F)(F)F)c1` [Compound 54, N-Hydroxy-3,5-bis(trifluoromethyl)benzene-1-sulfonamide], 2%. Take `Cc1oc(C)c(S(=O)(=O)NO)c1C(=O)N1CCOCC1` [Compound 77, N-Hydroxy-2,5-dimethyl-4-(morpholine-4-carbonyl)furan-3-sulfonamide]: the “Relative N2O Yield” value was 14%. In the case of `O=S(=O)(NO)c1ccc(-c2cc(C(F)(F)F)on2)s1` [Compound 36, N-Hydroxy-5-[5-(trifluoromethyl)-1,2-oxazol-3-yl]thiophene-2-sulfonamide] it was 51%; in that of `Cc1cc(S(=O)(=O)NO)c(C)o1` [Compound 70, N-Hydroxy-2,5-dimethylfuran-3-sulfonamide], 6%; in that of `NS(=O)(=O)c1cc(S(=O)(=O)NO)cs1` [Compound 34, 4-N-Hydroxythiophene-2,4-disulfonamide], 100%.

On to `O=C(O)c1cc(S(=O)(=O)NO)ccc1O` [Compound 60, 2-Hydroxy-5-(hydroxysulfamoyl)benzoic acid], for which the “Relative N2O Yield” value stood at 9%. As for `CCOC(=O)c1coc(S(=O)(=O)NO)c1` [Compound 78, Ethyl 5-(hydroxysulfamoyl)furan-3-carboxylate], the “Relative N2O Yield” value is recorded as 86%. In the case of `O=S(=O)(NO)c1cc(O)ccc1Cl` [Compound 66, 2-Chloro-N,5-dihydroxybenzene-1-sulfonamide] it was 80%.

For the compound `O=S(=O)(NO)c1coc2ccccc12` [Compound 6, N-Hydroxy-1-benzofuran-3-sulfonamide], the “Relative N2O Yield” value stood at 85%. For `COCc1ccc(Cl)c(S(=O)(=O)NO)c1` [Compound 68, 2-Chloro-N-hydroxy-5-(methoxymethyl)benzene-1-sulfonamide], the “Relative N2O Yield” value turned out to be 86%.

Consider `O=S(=O)(NO)c1c(Cl)ccc2nonc12` [Compound 50, 5-Chloro-N-hydroxy-2,1,3-benzoxadiazole-4-sulfonamide], for which the “Relative N2O Yield” value is recorded as 31%.

On to `O=S(=O)(NO)c1sc(Br)cc1Br` [Compound 46, 3,5-Dibromo-N-hydroxythiophene-2-sulfonamide], for which the “Relative N2O Yield” value is 95%. For `O=S(=O)(NO)c1sccc1Cl` [Compound 48, 3-Chloro-N-hydroxythiophene-2-sulfonamide], the “Relative N2O Yield” value is listed as 82%.

Take `CN1CCc2cc(Cl)c(S(=O)(=O)NO)cc21` [Compound 65, 5-Chloro-N-hydroxy-1-methyl-2,3-dihydro-1H-indole-6-sulfonamide]: the “Relative N2O Yield” value came to 71%. For the compound `COC(=O)c1ccc(S(=O)(=O)NO)o1` [Compound 69, Methyl 5-(hydroxysulfamoyl)furan-2-carboxylate], the “Relative N2O Yield” value is 100%. In the case of `COc1ccc(S(=O)(=O)NO)cc1OC` [Compound 52, N-Hydroxy-3,4-dimethoxybenzene-1-sulfonamide] it was 11%.

On to `CC(C)S(=O)(=O)c1ccccc1S(=O)(=O)NO` [Compound 73, N-Hydroxy-2-(propane-2-sulfonyl)benzene-1-sulfonamide], for which the “Relative N2O Yield” value came out at 97%. In the case of `O=S(=O)(NO)c1ccc(O)cc1Cl` [Compound 62, 2-Chloro-N,4-dihydroxybenzene-1-sulfonamide] it was 28%; in that of `O=S(=O)(NO)c1ccc(-c2ccon2)s1` [Compound 44, N-Hydroxy-5-(1,2-oxazol-3-yl)thiophene-2-sulfonamide], 81%. With `CN1CCOc2cc(S(=O)(=O)NO)ccc21` [Compound 61, N-Hydroxy-4-methyl-3,4-dihydro-2H-1,4-benzoxazine-7-sulfonamide], the “Relative N2O Yield” value is 11%. Regarding `Cc1cc(S(=O)(=O)NO)c(C)s1` [Compound 41, N-Hydroxy-2,5-dimethylthiophene-3-sulfonamide], the “Relative N2O Yield” value is 13%. With `Cc1cc(C)c(C)c(S(=O)(=O)NO)c1C` [Compound 53, N-Hydroxy-2,3,5,6-tetramethylbenzene-1-sulfonamide] the figure was 70%.
